According to PMC6515479, “An Investigation on Glucuronidation Metabolite Identification, Isozyme Contribution, and Species Differences of GL-V9 In Vitro and In Vivo” (Molecules, 2019):

What was measured:
Assay type in all cases: in vitro ADME
[1] = Enzyme kinetics of GL-V9 glucuronidation in monkey liver microsomes (MLMs); conditions: monkey, liver microsomes, pH 7.4; formation of 5-O-glucuronide GL-V9; MLMs, protein 0.1 mg/mL; mean ± SD, n = 3
Protocol: (§1) The composition of the incubation system (200 μL) contained liver microsomes of different species (0.1 mg protein/mL), 5 mM saccharolactone (D-saccharic acid 1,4-lactone monohydrate), 10 mM MgCl2, alamethicin (50 μg/mg protein), Tris-HCl buffer (50 mM, pH 7.4) and GL-V9 (1 μM). After 5 min of preincubation at 37 °C, UDPGA (5 mM) was added to initiate the phase II reaction. Control incubation samples were performed without UDPGA or without substrates (GL-V9). The reaction was terminated by addition of ice-cold methanol (three volumes) after incubation for 1 h at 37 °C. Samples were vortexed, centrifuged at 21,500× g for 10 min and then stored at 4 °C until HPLC-UV-TripleTOF analysis. To confirm that these metabolites are conjugates resulting from glucuronidation reaction, enzymatic hydrolysis of samples was processed. β-glucuronidase (100 KU, Sigma) was added and the hydrolysis was performed overnight at 37 °C. The control samples were carried out without β-glucuronidase under the same condition.
(§2) Enzyme kinetics experiments were carried out in triplicate among five different species, including monkey, beagle dog, rat, mouse, and human. The reaction system and operations are as same as described in Section 4.3. The solutions of GL-V9 were selected over a range of concentrations (0.05, 0.2, 0.5, 1, 2, 5, 10, 20 μM). According to the different metabolic capacity, the protein concentration of liver microsomes of different species is different as shown in Table 1.
(§3) Rates of the glucuronidation of GL-V9 were described as amounts of glucuronides formed per minute per milligram (pmol/min/mg). The calculation model of kinetic parameters was selected by the profile of Eadie-Hofstee plots. It often includes three possibilities: (1) the Eadie-Hofstee plot was linear, the formation rates of glucuronides (V) at different substrate concentrations (C) were fit to the standard Michaelis-Menten calculation of GraphPad Prism (version 6.02, GraphPad Software Inc., Guildford, Surrey, UK); (2) the Eadie-Hofstee plot was atypical kinetic-autoactivation, the rates and concentration were fit with the allosteric sigmoidal function of GraphPad Prism; (3) the Eadie-Hofstee plot was atypical kinetic-biphasic, the rates and concentration were fit with the […] of GraphPad Prism.

[2] = tested on: monkey liver microsomes (MLMs); assay: as above
Protocol: as §1, §2, §3

[3] = Enzyme kinetics of GL-V9 glucuronidation in beagle dog liver microsomes (DLMs); conditions: beagle, dog, liver microsomes, pH 7.4, formation of 5-O-glucuronide GL-V9, protein 0.1 mg/mL, mean ± SD, n = 3
Protocol: as §1
as §2, with “According to the different metabolic capacity, the protein concentration of liver microsomes of different species is different as shown in Table 1.” left out

[4] = tested on: beagle dog liver microsomes (DLMs); assay: as above; conditions: formation of 5-O-glucuronide GL-V9, protein 0.1 mg/mL, mean ± SD, n = 3
Protocol: as §1
as §2, with “According to the different metabolic capacity, the protein concentration of liver microsomes of different species is different as shown in Table 1.” left out

[5] = Enzyme kinetics of GL-V9 glucuronidation in human liver microsomes (HLMs); conditions: human, liver microsomes, pH 7.4, formation of 5-O-glucuronide GL-V9, protein 0.075 mg/mL, mean ± SD, n = 3
Protocol: as §1
as §2, with “According to the different metabolic capacity, the protein concentration of liver microsomes of different species is different as shown in Table 1.” left out

[6] = tested on: human liver microsomes (HLMs); assay: as above; conditions: formation of 5-O-glucuronide GL-V9, protein 0.075 mg/mL, mean ± SD, n = 3
Protocol: as §1
as §2, with “According to the different metabolic capacity, the protein concentration of liver microsomes of different species is different as shown in Table 1.” left out

rUGT1A9 = target: T1, rUGT1A9 (Homo sapiens, UniProt O60656); assay: Recombinant enzyme kinetics of GL-V9 glucuronidation, rUGT1A9; conditions: formation of 5-O-glucuronide GL-V9; rUGT1A9, protein 0.06 mg/mL, 1 h at 37 °C; mean ± SD, n = 3
T1 construct: purchased Corning (Woburn, MA, USA)
T1 sequence (O60656 26-530): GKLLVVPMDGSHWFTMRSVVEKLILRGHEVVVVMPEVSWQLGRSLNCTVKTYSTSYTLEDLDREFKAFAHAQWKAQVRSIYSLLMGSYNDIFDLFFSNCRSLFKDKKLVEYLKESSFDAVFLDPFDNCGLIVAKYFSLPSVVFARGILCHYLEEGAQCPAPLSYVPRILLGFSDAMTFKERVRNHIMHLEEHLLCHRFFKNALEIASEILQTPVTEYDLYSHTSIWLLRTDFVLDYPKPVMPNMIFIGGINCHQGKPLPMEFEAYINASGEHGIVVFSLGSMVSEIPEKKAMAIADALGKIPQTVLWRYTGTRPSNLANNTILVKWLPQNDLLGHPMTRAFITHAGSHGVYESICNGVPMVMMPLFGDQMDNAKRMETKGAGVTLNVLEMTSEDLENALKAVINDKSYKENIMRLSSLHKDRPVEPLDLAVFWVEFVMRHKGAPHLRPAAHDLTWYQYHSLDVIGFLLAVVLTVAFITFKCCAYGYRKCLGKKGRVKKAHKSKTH

rUGT2B7 = target: T2, rUGT2B7 (Homo sapiens, UniProt P16662); assay: UGT phenotyping of GL-V9 glucuronidation, rUGT2B7; conditions: GL-V9 0.5, 1, 5 μM, 37 °C, 1 h
T2 construct: purchased Corning (Woburn, MA, USA)
T2 sequence (P16662 24-529): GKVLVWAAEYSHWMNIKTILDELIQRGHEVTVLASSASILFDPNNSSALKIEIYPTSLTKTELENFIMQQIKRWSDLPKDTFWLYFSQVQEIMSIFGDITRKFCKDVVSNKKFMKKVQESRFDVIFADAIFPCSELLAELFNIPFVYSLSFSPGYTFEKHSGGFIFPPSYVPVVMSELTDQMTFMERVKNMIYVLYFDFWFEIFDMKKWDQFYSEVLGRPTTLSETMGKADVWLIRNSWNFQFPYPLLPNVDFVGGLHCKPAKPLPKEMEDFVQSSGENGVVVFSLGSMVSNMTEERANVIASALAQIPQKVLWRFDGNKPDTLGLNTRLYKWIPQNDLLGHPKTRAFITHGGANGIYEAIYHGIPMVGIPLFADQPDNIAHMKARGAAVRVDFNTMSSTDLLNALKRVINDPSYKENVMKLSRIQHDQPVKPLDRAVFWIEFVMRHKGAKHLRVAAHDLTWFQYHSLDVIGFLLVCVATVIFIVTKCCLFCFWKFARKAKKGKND
Protocol: as §1
Twelve human recombinant UGT isoforms (rUGT1A1, rUGT1A3, rUGT1A4, rUGT1A6, rUGT1A7, rUGT1A8, rUGT1A9, rUGT1A10, rUGT2B4, rUGT2B7, rUGT2B15, and rUGT2B17) were employed to identify the main UGT enzyme(s) responsible for glucuronidation of GL-V9 under mixture conditions as described in Section 4.3. […]

COc1c(OCCCCN2CCCC2)cc(O)c2c(=O)cc(-c3ccccc3)oc12 [GL-V9]
Km at 1 h [1]: 11.2 ± 0.47 µM | Clint in MLMs relative to DLMs ([2]; MLMs versus DLMs): approximately 9 fold | Glucuronidation rate in MLMs relative to DLMs ([2]; MLMs versus DLMs): > 8 fold | Vmax ([2]; formation of 5-O-glucuronide GL-V9, MLMs, protein 0.1 mg/mL, mean ± SD, n = 3): 182.5 ± 4.92 pmol/min/mg | Km at 1 h [3]: 12.5 ± 1.43 µM | Vmax [4]: 22.03 ± 0.42 pmol/min/mg | Km at 1 h [5]: 11.2 ± 0.66 µM | Vmax [6]: 88.49 ± 4.21 pmol/min/mg | Vmax (rUGT1A9): 148.1 ± 2.56 pmol/min/mg | Catalytic activity in the production of 5-O-glucuronide GL-V9 (rUGT2B7): did not show apparent catalytic activity
